Reference: ChEMBL document CHEMBL1201862, “PubChem BioAssay data set” (2004)
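In this assay, cells in 96-well plates receive the compound at five concentrations for 48 hours. Endpoints are linearly interpolated between the surrounding concentrations. GI50 is the concentration that inhibits growth by half.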 Active and inactive are the calls of the source. Rule as the data show it: active = GI50 up to about 1.1 µM and inactive = higher.

What was measured:
Experiment in all cases: NCI-60 cell line screen, 48 h
SF-539 = test system: SF-539
NCI-H460 = test system: NCI-H460
COLO 205 = test system: COLO 205
HCT-15 = test system: HCT-15
HOP-62 = test system: HOP-62
DLD-1 = test system: DLD-1
SN12C = test system: SN12C
UO-31 = test system: UO-31
OVCAR-5 = test system: OVCAR-5
KM-20L2 = test system: KM-20L2
HL-60 = test system: HL-60
CAKI-1 = test system: CAKI-1
MDA-N = test system: MDA-N
SR = test system: SR
U-251 = test system: U-251
Hs-578T = test system: Hs-578T
CCRF-CEM = test system: CCRF-CEM
MCF7 = test system: MCF7
HCC 2998 = test system: HCC 2998
MDA-MB-231 = test system: MDA-MB-231

| SMILES | GI50 (SF-539) | GI50 (NCI-H460) | GI50 (COLO 205) | GI50 (HCT-15) [µM] | GI50 (HOP-62) | GI50 (DLD-1) | GI50 (SN12C) | GI50 (UO-31) | GI50 (OVCAR-5) | GI50 (KM-20L2) | GI50 (HL-60) | GI50 (CAKI-1) | GI50 (MDA-N) | GI50 (SR) | GI50 (U-251) | GI50 (Hs-578T) | GI50 (CCRF-CEM) | GI50 (MCF7) | GI50 (HCC 2998) | GI50 (MDA-MB-231) |
| --- | --- | --- | --- | --- | --- | --- | --- | --- | --- | --- | --- | --- | --- | --- | --- | --- | --- | --- | --- | --- |
| O=C(CC1(O)C(=O)Nc2ccccc21)c1cccc(O)c1 (stereo not drawn) | > 100 µM (inactive) | > 100 µM (inactive) | > 100 µM (inactive) | > 100 | > 100 µM (inactive) | > 100 µM (inactive) | > 100 µM (inactive) | 46.1 µM (inactive) | > 100 µM (inactive) | > 100 µM (inactive) | > 100 µM (inactive) | > 100 µM (inactive) |  |  |  |  |  |  |  |  |
| Cc1cc(=O)oc2cc(OC(=O)N(C)C)c(Cl)cc12 | 55.3 µM (inactive) | > 100 µM (inactive) | 95.9 µM (inactive) | > 100 | 25.1 µM (inactive) |  | > 100 µM (inactive) | > 100 µM (inactive) | > 100 µM (inactive) |  | 54 µM (inactive) | > 100 µM (inactive) | > 100 µM (inactive) | > 100 µM (inactive) | 53 µM (inactive) | > 100 µM (inactive) | > 100 µM (inactive) | > 100 µM (inactive) | > 100 µM (inactive) | > 100 µM (inactive) |
| Clc1cccc(/N=C/C=C/Nc2cccc(Cl)c2)c1 | 17.2 µM (inactive) | 17.7 µM (inactive) | 16.3 µM (inactive) | 17.8 | 16.8 µM (inactive) |  | 14 µM (inactive) | 16 µM (inactive) | 24.8 µM (inactive) |  | 18.9 µM (inactive) | 26.1 µM (inactive) | 13.9 µM (inactive) | 24.2 µM (inactive) | 16.5 µM (inactive) | 29.8 µM (inactive) | > 10 µM (inactive) | 18.8 µM (inactive) | 11.9 µM (inactive) | 15.7 µM (inactive) |
| CC1=NN(c2nc(N)nc(/C(C#N)=C\c3ccc(-c4ccc([N+](=O)[O-])cc4)o3)n2)C(C)(C)C1 | > 100 µM (inactive) | > 100 µM (inactive) | > 100 µM (inactive) | > 100 | 1.78 µM (inactive) |  | > 100 µM (inactive) | > 100 µM (inactive) | > 100 µM (inactive) |  | 17.1 µM (inactive) | > 100 µM (inactive) | > 100 µM (inactive) | 11.1 µM (inactive) | 39.5 µM (inactive) | 62.2 µM (inactive) | 0.807 µM (active) | > 100 µM (inactive) | > 100 µM (inactive) | 27.5 µM (inactive) |
| C=C1CC(c2ccc(OCCCN3C(=O)c4ccccc4C3=O)c(OC)c2)OC1=O (stereo not drawn) | 0.303 µM (active) | 2.62 µM (inactive) | 1.4 µM (inactive) | 2.71 | 15.6 µM (inactive) |  | 6.82 µM (inactive) | 3.69 µM (inactive) | 13.7 µM (inactive) |  | 1.25 µM (inactive) | 3.66 µM (inactive) | 3.44 µM (inactive) | 0.973 µM (active) | 7.98 µM (inactive) | 6.17 µM (inactive) | 1.06 µM (active) | 0.218 µM (active) | 12 µM (inactive) | 9.25 µM (inactive) |
| CO[C@H]1O[C@@H]2CO[C@@H](c3ccccc3)O[C@H]2C[C@]12CCC/C=C\CO2 | 14.6 µM (inactive) | 47.4 µM (inactive) | 13.9 µM (inactive) | 13 | 16.9 µM (inactive) |  | 14.8 µM (inactive) | 14.3 µM (inactive) | 60.1 µM (inactive) |  | 15.9 µM (inactive) | 25.9 µM (inactive) | 14.1 µM (inactive) | 13.7 µM (inactive) | 12.6 µM (inactive) | 16.4 µM (inactive) | 10.4 µM (inactive) | 15.2 µM (inactive) | 18.7 µM (inactive) | 16.7 µM (inactive) |
| Cc1cc2c(=O)cc(-c3ccc(Cl)c(Cl)c3)oc2c(C(=O)O)c1C | > 100 µM (inactive) | > 100 µM (inactive) | > 100 µM (inactive) | > 100 |  | > 100 µM (inactive) | > 100 µM (inactive) | > 100 µM (inactive) | > 100 µM (inactive) | > 100 µM (inactive) |  | > 100 µM (inactive) |  |  | > 100 µM (inactive) |  | > 100 µM (inactive) |  |  |  |
| COc1cc2ncnc(Nc3cccc(Br)c3)c2cc1OC | 4.07 µM (inactive) | 5.75 µM (inactive) | 4.43 µM (inactive) | 6.56 | 10.4 µM (inactive) |  | 13.2 µM (inactive) | 1.98 µM (inactive) | 8.13 µM (inactive) |  | > 28.8 µM (inactive) | 1.37 µM (inactive) | 7.26 µM (inactive) | 20.3 µM (inactive) | 7.06 µM (inactive) | 4.44 µM (inactive) | 30.2 µM (inactive) | 23.1 µM (inactive) | 3.26 µM (inactive) | 5.61 µM (inactive) |
| CC(=O)Oc1c2ccsc2c(OC(C)=O)c2ccsc12 | 0.294 µM (active) | 1.81 µM (inactive) | 1.76 µM (inactive) | 0.573 | 1.27 µM (inactive) |  | 0.714 µM (active) | 1.33 µM (inactive) | 2.47 µM (inactive) |  | 0.647 µM (active) | 2.11 µM (inactive) | 0.12 µM (active) | 0.317 µM (active) | 0.869 µM (active) | 0.354 µM (active) | 0.859 µM (active) | 0.667 µM (active) | 1.8 µM (inactive) | 1.29 µM (inactive) |
| CC1(C)C2CC(c3ccncc3)ON2C(C)(C)N1O (stereo not drawn) | > 100 µM (inactive) | > 100 µM (inactive) | > 100 µM (inactive) | > 100 | > 100 µM (inactive) |  | > 100 µM (inactive) | > 100 µM (inactive) | > 100 µM (inactive) |  | > 100 µM (inactive) | > 100 µM (inactive) | > 100 µM (inactive) | > 100 µM (inactive) | > 100 µM (inactive) | > 100 µM (inactive) | > 100 µM (inactive) | > 100 µM (inactive) | > 100 µM (inactive) | > 100 µM (inactive) |
| CCCN(CCC)c1c([N+](=O)[O-])cc(C(=O)N(C)C)cc1[N+](=O)[O-] | > 100 µM (inactive) | 47.3 µM (inactive) | 76.4 µM (inactive) | 40.4 |  | > 100 µM (inactive) | > 100 µM (inactive) | 92.9 µM (inactive) | > 100 µM (inactive) |  | 15.6 µM (inactive) | > 100 µM (inactive) |  |  | 86.5 µM (inactive) |  | 28.4 µM (inactive) |  | > 100 µM (inactive) |  |
| CCC1=CCC(P(=O)(c2ccccc2)c2ccccc2)CC1C (stereo not drawn) | 42.9 µM (inactive) | 39.1 µM (inactive) | 35 µM (inactive) | 34.9 |  |  | 44.7 µM (inactive) | 21.7 µM (inactive) | 65.2 µM (inactive) | 37.1 µM (inactive) | 22.2 µM (inactive) | > 100 µM (inactive) |  |  | 46.1 µM (inactive) |  | 31.3 µM (inactive) |  |  |  |
| CCN(CC)C(=S)SC(C(=O)Nc1nnc(-c2ccc(Cl)cc2)o1)c1ccccc1 (stereo not drawn) | 14.8 µM (inactive) | 10.4 µM (inactive) | 4.06 µM (inactive) | 3.81 | 14.7 µM (inactive) |  | 13.3 µM (inactive) | 17 µM (inactive) | 6.41 µM (inactive) |  | 4.85 µM (inactive) | 11.7 µM (inactive) | 17.3 µM (inactive) | 4.97 µM (inactive) | 10 µM (inactive) | 35.4 µM (inactive) | 2.84 µM (inactive) | 7.26 µM (inactive) | 3.41 µM (inactive) | 26 µM (inactive) |
| COC1C(O)CC(OC2C(C)OC(Oc3cc(O)c4c(O)c5c(cc4c3)C[C@@H]([C@H](OC)C(=O)[C@@H](O)[C@@H](C)O)[C@H](OC3CC(OC4CC(OC6CC(C)(O)C(O)C(C)O6)C(O)C(C)O4)C(O)C(C)O3)C5=O)CC2OC(C)=O)OC1C (stereo partly drawn) | 38.6 µM (inactive) | 31.6 µM (inactive) | 70.8 µM (inactive) | > 100 | > 100 µM (inactive) |  | 32.5 µM (inactive) | > 100 µM (inactive) | > 100 µM (inactive) |  | > 100 µM (inactive) | > 100 µM (inactive) | 97.7 µM (inactive) | 63.5 µM (inactive) | 48.1 µM (inactive) | 20.3 µM (inactive) | > 100 µM (inactive) | 24.4 µM (inactive) | 97.9 µM (inactive) | 91.6 µM (inactive) |
| COC(=O)C1(C(=O)OC)Cc2ccc(OC)cc2C2=C1C(=O)c1ccccc1C2=O | 16.6 µM (inactive) | 16.1 µM (inactive) | 20.3 µM (inactive) | 10.7 | 7.08 µM (inactive) |  | 4.42 µM (inactive) | 3.69 µM (inactive) | 6.01 µM (inactive) |  | 2.24 µM (inactive) | 0.423 µM (active) | 1.83 µM (inactive) | 3.54 µM (inactive) | 5.56 µM (inactive) | 8.93 µM (inactive) | 2.15 µM (inactive) | 2.55 µM (inactive) | 19.5 µM (inactive) | 1.99 µM (inactive) |
| C[C@]12CCC(=O)C(O)=C1CC[C@@H]1C2CC[C@]2(C)NC(=O)CCC12 (stereo partly drawn) | > 100 µM (inactive) | > 100 µM (inactive) | > 100 µM (inactive) | 70.6 | > 100 µM (inactive) |  | > 100 µM (inactive) | > 100 µM (inactive) | > 100 µM (inactive) | > 100 µM (inactive) | > 100 µM (inactive) | > 100 µM (inactive) |  |  | > 100 µM (inactive) |  | > 100 µM (inactive) |  |  |  |
| Cc1c(C2=C(Br)C(=O)N(C)C2=O)c(=O)n(C)c(=O)n1C | 14.9 µM (inactive) | 45.6 µM (inactive) | 15.3 µM (inactive) | 19.4 | > 100 µM (inactive) |  | 95.1 µM (inactive) | 18.5 µM (inactive) | 61.8 µM (inactive) |  | 17.1 µM (inactive) | 19 µM (inactive) | 28.1 µM (inactive) | 23.1 µM (inactive) | 63.1 µM (inactive) | > 100 µM (inactive) | 12.2 µM (inactive) | 20.2 µM (inactive) | 22.2 µM (inactive) | 25.2 µM (inactive) |
